One block for each compound: values may come before it. Residues, ends and D or L forms follow the SMILES beside them. *: point of attachment. StBu = CC(C)(C)S*
What was measured:
[1] = system: Female Rag2−/− mice; conditions: mouse, in vivo, iv
[2] = system: Female Rag2−/− mice; conditions: mouse, in vivo, iv; remark: listed apart in the source
[3] = system: Female Rag2−/− mice; experiment: Assessment of kidney function; assay type: in vivo; conditions: one week after injection, still within the reference range
[4] = system: Female Rag2−/− mice; experiment: In vivo toxicity: animal survival after intravenous injection; conditions: i.v.; all of the doses tested (0.0125-0.4 mmol/kg)
[5] = system: mice; conditions: arginine-rich versus nonarginine peptides; cited from earlier work

ALP levels in blood plasma [1]: increased | WBC counts [2]: significant increase | platelet counts [2]: significant decrease
Compound: RRRRRAANCK [R5]
ALT levels in blood plasma [1]: increased | AST levels in blood plasma [1]: significant increase

Compound: CC(=O)N[C@@H](CCCNC(=N)N)C(=O)N[C@@H](CCCNC(=N)N)C(=O)N[C@@H](CCCNC(=N)N)C(=O)N[C@@H](C)C(=O)N[C@@H](C)C(=O)N[C@@H](CC(N)=O)C(=O)N[C@@H](CSSC(C)(C)C)C(=O)N[C@@H](CCCCN)C(=O)O [R3] (Ac-RRRAANC(StBu)K-OH)
liver enzyme levels (AST, ALT, ALP) in blood plasma [1]: no significant differences | creatinine levels in urine ([3]; 0.1 mmol/kg i.v.): observable increase | total protein levels in urine ([3]; 0.1 mmol/kg i.v.): observable increase

Compound: RAANCK [R1]
liver enzyme levels (AST, ALT, ALP) in blood plasma [1]: no significant differences | observable toxicity in animals [4]: did not exhibit any observable toxicity

Compound: NCCCC(=O)O [GABA]
survival of mice exposed to the peptide [5]: mice survived

Compound: ACSSSPSKHCG [TD]
survival of mice exposed to the peptide [5]: mice survived

Compound: RRRRAANCK [R4]
AST levels in blood plasma [1]: significant increase | creatinine levels in urine ([3]; 0.5 mmol/kg i.v.): observable increase | total protein levels in urine ([3]; 0.5 mmol/kg i.v.): observable increase | WBC counts [2]: significant increase | platelet counts [2]: significant decrease

WBC counts [2]: significant increase
Compound: RRRRRRAANCK [R6]
liver enzyme levels (AST, ALT, ALP) in blood plasma [1]: no significant differences

Compound: CC(=O)N[C@@H](CCCNC(=N)N)C(=O)N[C@@H](CCCNC(=N)N)C(=O)N[C@@H](C)C(=O)N[C@@H](C)C(=O)N[C@@H](CC(N)=O)C(=O)N[C@@H](CSSC(C)(C)C)C(=O)N[C@@H](CCCCN)C(=O)O [R2] (Ac-RRAANC(StBu)K-OH)
liver enzyme levels (AST, ALT, ALP) in blood plasma [1]: no significant differences

From article PMC11362383 (ACS applied materials & interfaces, 2024)
